Broadly, the pKi is the negative decadic logarithm of the Ki, by convention in mol/L. Usually pIC50 stands for −log10 of the IC50, conventionally taken in molar units. As a reminder, the inhibition in vivo is the change of the read-out against control, counted positive when it falls. Higher therefore signals a response far below the control.

From ChEMBL document CHEMBL3627691, “Structure activity relationships of benzyl C-region analogs of 2-(3-fluoro-4-methylsulfonamidophenyl)propanamides as potent TRPV1 antagonists” (Bioorg Med Chem, 2015) come the findings set out here.

pIC50, pKi: −log10 of the molar value.

Data set [1] concerns the target T1, Transient receptor potential cation channel subfamily V member 1 (Homo sapiens, UniProt Q8NER1). Description: Antagonist activity at human TRPV1 heterologously expressed in CHO cells assessed as inhibition of capsaicin-induced activation by FLIPR assay. The class given is cell-based. To be noted: for pKi: read-out: Ki; for Ki: cho.
The target of data set [2] is T1, Transient receptor potential cation channel subfamily V member 1. Kind of data set: Antagonist activity at human TRPV1 heterologously expressed in CHO cells assessed as inhibition of NADA-induced activation by FLIPR assay. The format is cell-based.
The target is the same in data set [3]. Kind of data set: Antagonist activity at human TRPV1 heterologously expressed in CHO cells assessed as inhibition of low pH-induced activation. The format is cell-based.
For data set [4] the target is unchanged. Kind of data set: Antagonist activity at human TRPV1 heterologously expressed in CHO cells assessed as inhibition of low 45 degC heat -induced activation. The class given is cell-based.
The test system of data set [5] is Mus musculus. Kind of data set: Inhibition of capsaicin-induced hypothermia in mouse at 3 mg/kg, po administered 15 mins prior to capsaicin challenge measured 30 mins post capsaicin challenge. The format is functional.
The test system of data set [6] is Mus musculus. Kind of data set: Analgesic activity in Bennett mouse model of neuropathic pain assessed as reduction of CCI-induced cold allodynia at 0.0001 to 100 mg/kg, po. The class given is functional, organism-based.
The test system of data set [7] is Mus musculus. Kind of data set: Induction of hyperthermia in mouse at 0.3 and 3 mg/kg, po. To be noted: in vivo.
In data set [8] the test system is Mus musculus. Kind of data set: Inhibition of capsaicin-induced hypothermia in mouse at 0.3 mg/kg, po administered 15 mins prior to capsaicin challenge measured 30 mins post capsaicin challenge. The format is functional.
The test system of data set [9] is Mus musculus. Kind of data set: Analgesic activity in Bennett mouse model of neuropathic pain assessed as reduction of CCI-induced cold allodynia at 10 mg/kg, po. The class given is functional.
The test system of data set [10] is Mus musculus. Kind of data set: Inhibition of capsaicin-induced hypothermia in mouse at 0.3 and 3 mg/kg, po administered 15 mins prior to capsaicin challenge measured 30 mins post capsaicin challenge. The class given is functional, organism-based.

T1 sequence (Q8NER1 whole entry): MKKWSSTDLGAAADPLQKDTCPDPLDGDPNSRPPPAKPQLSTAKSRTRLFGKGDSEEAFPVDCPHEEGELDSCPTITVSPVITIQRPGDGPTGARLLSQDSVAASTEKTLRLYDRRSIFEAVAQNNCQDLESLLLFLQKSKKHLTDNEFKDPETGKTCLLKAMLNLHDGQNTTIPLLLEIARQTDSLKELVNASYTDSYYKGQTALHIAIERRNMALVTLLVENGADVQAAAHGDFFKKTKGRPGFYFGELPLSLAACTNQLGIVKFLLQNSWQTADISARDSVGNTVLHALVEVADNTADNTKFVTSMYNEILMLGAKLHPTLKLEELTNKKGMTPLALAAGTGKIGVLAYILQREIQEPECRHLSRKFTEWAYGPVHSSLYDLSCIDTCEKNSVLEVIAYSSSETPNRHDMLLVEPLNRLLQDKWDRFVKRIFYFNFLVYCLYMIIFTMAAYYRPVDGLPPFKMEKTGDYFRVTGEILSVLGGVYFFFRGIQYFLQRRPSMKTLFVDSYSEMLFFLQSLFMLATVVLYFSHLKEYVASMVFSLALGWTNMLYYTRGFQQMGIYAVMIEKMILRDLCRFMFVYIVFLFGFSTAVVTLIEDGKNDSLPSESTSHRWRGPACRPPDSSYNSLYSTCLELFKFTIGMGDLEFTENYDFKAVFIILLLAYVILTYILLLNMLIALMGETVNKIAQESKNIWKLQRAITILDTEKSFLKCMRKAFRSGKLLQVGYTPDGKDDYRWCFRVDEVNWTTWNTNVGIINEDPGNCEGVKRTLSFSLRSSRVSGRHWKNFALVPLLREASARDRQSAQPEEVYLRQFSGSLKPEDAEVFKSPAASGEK

On to `CCCCCCc1cc(C(F)(F)F)ccc1CNC(=O)C(C)c1ccc(NS(C)(=O)=O)c(F)c1` (stereo not given), for which the pKi in data set [1] was 9.40.

Regarding `CC(C(=O)NCc1ccc(C(F)(F)F)cc1C1CCCCC1)c1ccc(NS(C)(=O)=O)c(F)c1` (stereo not given), the pKi in data set [1] was 9.22. For `CCCCCSc1cc(C(F)(F)F)ccc1CNC(=O)C(C)c1ccc(NS(C)(=O)=O)c(F)c1` (stereo not given), the pKi in data set [1] was 8.64. As for `CC(C(=O)NCc1ccc(C(F)(F)F)nc1N1CCC(C(F)(F)F)CC1)c1ccc(NS(C)(=O)=O)c(F)c1` (stereo not given), the negative-log Ki (pKi) in [1] was 9.40. `CC(C)COc1cc(C(F)(F)F)ccc1CNC(=O)C(C)c1ccc(NS(C)(=O)=O)c(F)c1` (stereo not given): the pKi in [1] was 9.10. Still for that read-out and setting: under `CCCCSc1cc(C(F)(F)F)ccc1CNC(=O)C(C)c1ccc(NS(C)(=O)=O)c(F)c1` (stereo not given) stands 8.72; under `CCCOc1cc(C(F)(F)F)ccc1CNC(=O)C(C)c1ccc(NS(C)(=O)=O)c(F)c1` (stereo not given), 8.70. `CC(C(=O)NCc1ccc(C(F)(F)F)cc1SCCCO)c1ccc(NS(C)(=O)=O)c(F)c1` (stereo not given): in data set [1], the Ki result is recorded as “Not Active”. With `CC(C(=O)NCc1ccc(C(F)(F)F)cc1N1CCN(c2cccc(C(F)(F)F)c2)CC1)c1ccc(NS(C)(=O)=O)c(F)c1` (stereo not given), in data set [1], the pKi is 8.41. With `COc1ccc(CSc2cc(C(F)(F)F)ccc2CNC(=O)C(C)c2ccc(NS(C)(=O)=O)c(F)c2)cc1` (stereo not given), the pKi in data set [1] was 8.64. Same read-out and setting: under `CC(C(=O)NCc1ccc(C(F)(F)F)cc1-c1cccc(Cl)c1)c1ccc(NS(C)(=O)=O)c(F)c1` (stereo not given) stands 9.00; under `CC(C(=O)NCc1ccc(C(F)(F)F)cc1SCc1ccccc1Cl)c1ccc(NS(C)(=O)=O)c(F)c1` (stereo not given), 9.05; under `C[C@@H](C(=O)NCc1ccc(C(F)(F)F)cc1SC1CCCCC1)c1ccc(NS(C)(=O)=O)c(F)c1`, 7.86. Still for that read-out and setting: under `CC(C)CCSc1cc(C(F)(F)F)ccc1CNC(=O)C(C)c1ccc(NS(C)(=O)=O)c(F)c1` (stereo not given) stands 8.85; under `CCCCCCSc1cc(C(F)(F)F)ccc1CNC(=O)C(C)c1ccc(NS(C)(=O)=O)c(F)c1` (stereo not given), 8.74; under `CC(C(=O)NCc1ccc(C(F)(F)F)cc1SC1CCCCC1)c1ccc(NS(C)(=O)=O)c(F)c1` (stereo not given), 9.30.

`C[C@H](C(=O)NCc1ccc(C(F)(F)F)cc1SC1CCCCC1)c1ccc(NS(C)(=O)=O)c(F)c1`: the pKi in data set [2] was 10.52; in data set [1], 9.52. Moreover, the negative-log IC50 (pIC50) in data set [3] is 7.69; in data set [4], 8.14. In the data set with Mus musculus [5], the inhibition in vivo at 3 mg/kg stood at 57%. The Activity entry with Mus musculus [6] is “Dose-dependent effect”; in the data set on Mus musculus [7], “Non-toxic”. `CC(C(=O)NCc1ccc(C(F)(F)F)cc1SCc1ccccc1)c1ccc(NS(C)(=O)=O)c(F)c1` (stereo not given): the pKi in data set [1] is 9.30. `CC(C(=O)NCc1ccc(C(F)(F)F)cc1[N+](=O)[O-])c1ccc(NS(C)(=O)=O)c(F)c1` (stereo not given): the Ki entry in data set [1] is listed as “Not Active”. For `CC(C(=O)NCc1ccc(C(F)(F)F)cc1-c1ccc(F)c(Cl)c1)c1ccc(NS(C)(=O)=O)c(F)c1` (stereo not given), the pKi in [1] is 9.22. As to `CC(C(=O)NCc1ccc(C(F)(F)F)cc1SCc1ccc(Cl)cc1)c1ccc(NS(C)(=O)=O)c(F)c1` (stereo not given), in [1], the pKi was 8.96. The same measure, in the same setting: under `CC(C(=O)NCc1ccc(C(F)(F)F)cc1N1CCC(Cc2ccc(F)cc2)CC1)c1ccc(NS(C)(=O)=O)c(F)c1` (stereo not given) stands 9.40; under `CC(C)CCOc1cc(C(F)(F)F)ccc1CNC(=O)C(C)c1ccc(NS(C)(=O)=O)c(F)c1` (stereo not given), 9.30; under `CC(C(=O)NCc1ccc(C(F)(F)F)cc1SCc1ccco1)c1ccc(NS(C)(=O)=O)c(F)c1` (stereo not given), 8.49. Same read-out and setting: under `CC(C(=O)NCc1ccc(C(F)(F)F)nc1-c1ccc(F)c(Cl)c1)c1ccc(NS(C)(=O)=O)c(F)c1` (stereo not given) stands 9.22.

On to `CC(C(=O)NCc1ccc(C(F)(F)F)cc1SC1CCCC1)c1ccc(NS(C)(=O)=O)c(F)c1` (stereo not given), for which the pKi is 10.52 in [2] and 9.52 in [1]. Besides, the pIC50 in data set [3] was 7.49; in [4] it was 7.43. In the data set on Mus musculus [8], this molecule gave an inhibition in vivo at 0.3 mg/kg of 38%. In the data set with Mus musculus [5], 3 mg/kg produced 80% inhibition in vivo. Further, the MPE in the data set with Mus musculus [9] worked out at 48%. Moreover, the inhibition result with Mus musculus [10] was “Dose-dependent effect”. The Activity entry in the data set on Mus musculus [6] was “Dose-dependent effect”; with Mus musculus [7], “Non-toxic”. As to `CC(C(=O)NCc1ccc(C(F)(F)F)cc1N1CCC(Cc2cccc(F)c2)CC1)c1ccc(NS(C)(=O)=O)c(F)c1` (stereo not given), the pKi in data set [1] is 9.40. Still for that read-out and setting: with `CC(C(=O)NCc1ccc(C(F)(F)F)cc1OCc1ccc(F)cc1)c1ccc(NS(C)(=O)=O)c(F)c1` (stereo not given) the figure was 9.30. On the same count and under the same terms, with `CC1CCN(c2cc(C(F)(F)F)ccc2CNC(=O)C(C)c2ccc(NS(C)(=O)=O)c(F)c2)CC1` (stereo not given) the figure was 9.05; with `CCCCN(C)c1cc(C(F)(F)F)ccc1CNC(=O)C(C)c1ccc(NS(C)(=O)=O)c(F)c1` (stereo not given), 8.92.
